According to the NIST ThermoML archive (doi:10.1021/je049788h):

Settings: 101.3 kPa, Liquid; for viscosity: Capillary tube (Ostwald / Ubbelohde) method; for mass density: Vibrating tube method

COCCOCCOCCOCCOC [2,5,8,11,14-pentaoxapentadecane]
Settings	mass density [kg/m3]	viscosity [mPa·s]
298.15 K	1006.65	3.38
313.15 K	993.28	2.42
323.15 K	984.05	2.004
333.15 K	974.8	1.69
343.15 K	965.55	1.42
